Activity calls are given as the source filed them. No cut-off for these calls is given here.
Columns and labels:
[1] = system: Caenorhabditis elegans; assay: Protection against thermal stress in Caenorhabditis elegans N2 assessed as increase in mean survival time at 100 uM at 37 degC measured every 1 hr post treatment relative to control; type: functional
[2] = system: Caenorhabditis elegans; assay: Protection against thermal stress in Caenorhabditis elegans PS3551 harboring HSF-1 mutant assessed as mean survival time at 37 degC measured every 1 hr up to 8 hrs post treatment (reference value: 4.37 +/- 0.1 hrs); type: functional
[3] = system: Caenorhabditis elegans; assay: Protection against thermal stress in Caenorhabditis elegans N2 assessed as increase in mean survival time at 300 uM at 37 degC measured every 1 hr post treatment relative to control; type: functional
[4] = system: Caenorhabditis elegans; assay: In vivo activation of HSF-1 pathway in Caenorhabditis elegans N2 assessed as increase in HSP70 protein expression by Western blot analysis relative to control; type: functional
[5] = system: Caenorhabditis elegans; assay: Anti-ageing activity in Caenorhabditis elegans N2 assessed as increase in life span at 300 uM relative to control; type: functional
[6] = system: Caenorhabditis elegans; assay: Anti-ageing activity in Caenorhabditis elegans N2 assessed as increase in rate of health span on bending in lifespan at 300 uM measured for 3 secs at 3 days time interval up to 16 days relative to control; type: functional
[7] = system: Caenorhabditis elegans; assay: Anti-ageing activity in Caenorhabditis elegans N2 assessed as increase in rate of health span on pumping in lifespan at 300 uM measured for 10 secs at 2 days time interval up to 21 days by dissecting microscopic method relative to control; type: functional
[8] = system: Caenorhabditis elegans; assay: Anti-ageing activity in Caenorhabditis elegans N2 assessed as increase in rate of health span in maximal lifespan at 300 uM; type: functional, organism-based
[9] = system: Caenorhabditis elegans; assay: Anti-ageing activity in Caenorhabditis elegans PS3551 harboring HSF-1 mutant assessed as increase in life span by measuring mean survival time measured up to 20 days post treatment (reference value: 10.89 +/- 0.17 day); type: functional
[10] = system: Caenorhabditis elegans; assay: Protection against amyloid beta aggregation-induced paralysis in Caenorhabditis elegans CL4176 harboring temperature-inducible human amyloid beta (3 to 42) transgene assessed as time delay in progression of paralysis at 26 degC after 36 hrs; type: functional

| SMILES | Activity [1] | further results |
| --- | --- | --- |
| COC(=O)C(Cc1cc2ccccc2[nH]1)NC(=O)c1c(O)c2c(c3c1O[C@@]1(C)OC[C@H](C)[C@H]1C3)O[C@@]1(C)OC[C@H](C)[C@H]1C2 (stereo not given in full) | Active |  |
| C[C@H]1CO[C@]2(C)Oc3c(c4c(c5c3C[C@@H]3[C@@H](C)CO[C@]3(C)O5)CN(C)CO4)C[C@H]12 | Active |  |
| C[C@H]1CO[C@]2(C)Oc3c(c4c(c5c3C[C@@H]3[C@@H](C)CO[C@]3(C)O5)CN(c3ccc(I)cc3)CO4)C[C@H]12 | Active |  |
| C[C@H]1CO[C@]2(C)Oc3c(c4c(c5c3C[C@@H]3[C@@H](C)CO[C@]3(C)O5)CN(c3ccc(O)cc3)CO4)C[C@H]12 | 15.38% | MST [2]: 4.32 h; Activity [3]: <=23.96%; Activity [4]: 28%; Activity [5]: 11%; Activity [6]: <=22%; Activity [7]: 16%; Activity [8]: Active; MST [9]: 10.99 days; Time [10]: 2.8 h |
| COC1(C)CCc2c(cc(O)c3c2OC(C)(OC)CC3)O1 (stereo not given) | Active |  |
| C[C@H]1CO[C@]2(C)Oc3c(c(O)c(C(=O)O)c4c3C[C@@H]3[C@@H](C)CO[C@]3(C)O4)C[C@H]12 | Active |  |
| C[C@H]1CO[C@]2(C)Oc3cc(O)c4c(c3C[C@H]12)O[C@@]1(C)OC[C@H](C)[C@H]1C4 | Active | Activity [3]: Active |
| C[C@H]1CO[C@]2(C)Oc3cc(OC/C=C/c4ccccc4)c4c(c3C[C@H]12)O[C@@]1(C)OC[C@H](C)[C@H]1C4 | inactive |  |
| COC(=O)c1c(O)c2c(c3c1O[C@@]1(C)OC[C@H](C)[C@H]1C3)O[C@@]1(C)OC[C@H](C)[C@H]1C2 | Active | Activity [3]: Active |
| C[C@H]1CO[C@]2(C)Oc3c(c4c(c5c3C[C@@H]3[C@@H](C)CO[C@]3(C)O5)CN(c3ccc(Cl)cc3)CO4)C[C@H]12 | Active |  |
| O=c1c(O)c(-c2ccc(O)c(O)c2)oc2cc(O)cc(O)c12 [QUERCETIN] | 8.81% |  |
| C[C@H]1CO[C@]2(C)Oc3c(c(O)c(C(=O)NCCc4ccc(O)cc4)c4c3C[C@@H]3[C@@H](C)CO[C@]3(C)O4)C[C@H]12 | Active |  |
| CNC(=O)c1c(O)c2c(c3c1OC1OCCCC1C3)OC1OCCCC1C2 (stereo not given) | Active |  |
| COC(=O)C(Cc1ccc(O)cc1)NC(=O)c1c(O)c2c(c3c1O[C@@]1(C)OC[C@H](C)[C@H]1C3)O[C@@]1(C)OC[C@H](C)[C@H]1C2 (stereo not given in full) | Active | Activity [3]: Active |
| C[C@H]1CO[C@]2(C)Oc3c(c4c(c5c3C[C@@H]3[C@@H](C)CO[C@]3(C)O5)CN(CCOCCO)CO4)C[C@H]12 | Active |  |
| COc1ccc(NC(=O)c2c(O)c3c(c4c2O[C@@]2(C)OC[C@H](C)[C@H]2C4)O[C@@]2(C)OC[C@H](C)[C@H]2C3)cc1 | Active |  |
| C[C@H]1CO[C@]2(C)Oc3c(c(O)c(C(=O)Nc4ccc(F)cc4)c4c3C[C@@H]3[C@@H](C)CO[C@]3(C)O4)C[C@H]12 | Active |  |
| COc1ccc(N2COc3c4c(c5c(c3C2)O[C@@]2(C)OC[C@H](C)[C@H]2C5)O[C@@]2(C)OC[C@H](C)[C@H]2C4)cc1 | Active |  |
| C[C@H]1CO[C@]2(C)Oc3c(c4c(c5c3C[C@@H]3[C@@H](C)CO[C@]3(C)O5)CN(c3ccc(Br)cc3)CO4)C[C@H]12 | Active | Activity [3]: Active |
| Oc1cc2c(c3c1CC1CCCOC1O3)CC1CCCOC1O2 (stereo not given) | Active |  |
| COC(=O)c1c(O)c2c(c3c1OC1OCCCC1C3)OC1OCCCC1C2 (stereo not given) | Active |  |
| CCCCSC(=O)c1c(O)c2c(c3c1OC1OCCCC1C3)OC1OCCCC1C2 (stereo not given) | Active |  |
| C[C@H]1CO[C@]2(C)Oc3c(c4c(c5c3C[C@@H]3[C@@H](C)CO[C@]3(C)O5)CN(c3ccccc3)CO4)C[C@H]12 | inactive |  |
| CCCCOc1cc2c(c3c1C[C@@H]1[C@@H](C)CO[C@]1(C)O3)C[C@@H]1[C@@H](C)CO[C@]1(C)O2 | Active | Activity [3]: Active |
| C[C@H]1CO[C@]2(C)Oc3c(c4c(c5c3C[C@@H]3[C@@H](C)CO[C@]3(C)O5)CN(c3ccc(F)cc3)CO4)C[C@H]12 | Active |  |
| CCCCN1COc2c3c(c4c(c2C1)O[C@@]1(C)OC[C@H](C)[C@H]1C4)O[C@@]1(C)OC[C@H](C)[C@H]1C3 | Active |  |
| C[C@H]1CO[C@]2(C)Oc3c(c4c(c5c3C[C@@H]3[C@@H](C)CO[C@]3(C)O5)CN(c3ccc([N+](=O)[O-])cc3)CO4)C[C@H]12 | inactive |  |
| COC(=O)CNC(=O)c1c(O)c2c(c3c1O[C@@]1(C)OC[C@H](C)[C@H]1C3)O[C@@]1(C)OC[C@H](C)[C@H]1C2 | Active | Activity [3]: Active |
| C[C@H]1CO[C@]2(C)Oc3c(c4c(c5c3C[C@@H]3[C@@H](C)CO[C@]3(C)O5)CN(c3ccc(C(=O)O)cc3)CO4)C[C@H]12 | Active |  |
| CC1CC2Cc3c(cc(O)c4c3OC3(C)OC(C)CC3C4)OC2(C)O1 (stereo not given) | inactive |  |

Source: ChEMBL document CHEMBL4145552, “Marine derived xyloketal derivatives exhibit anti-stress and anti-ageing effects through HSF pathway in Caenorhabditis elegans” (2018)
